Measurements from a melting point compilation (Tetko et al.; mined from patent text by program, amines drawn as free bases though some values may be those of a salt).

`CC(C)(O)CCOc1ccc(/C=C/C(=O)O)c(Oc2ncc(C(F)(F)F)cc2Cl)c1` gave a melting point of 192 to 194 °C.
`CC(C)Nc1cccnc1N1CCN(C(=O)c2ccc(C(=O)N3CCN(CC(O)CO)CC3)cc2)CC1` (stereo not drawn) showed a melting point of 158 °C.
With `CC(CCCC(C)(C)O)C1CCC2C3CC=C4CC(O)CC(O)C4(C)C3CCC12C` (stereo not drawn) the melting point was 170 to 172 °C.
In the case of `OCCc1ccc(OCCN2CCCCC2)cc1`, the melting point was 68 °C.
For `COc1ccc(C(O)CCSc2ccc(S(N)(=O)=O)s2)cc1` (stereo not drawn), the melting point was 111 to 112 °C.
Molecule `O=C1NCCc2ccc(O)cc21` has a melting point of 201 to 203 °C.
Molecule `Cc1ccc(-c2c(N)oc3c(C(C)(C)C)cc(C(C)(C)C)cc23)cc1C` has a melting point of 128 to 130 °C.
Molecule `Clc1ccc(-c2cc3nccc(C4CC4)n3n2)cc1` has a melting point of 137 to 138 °C.
In the case of `Nc1nc(N)nc(N2CCOCC2)n1`, the melting point was 248 to 250 °C.
Molecule `Nc1ccccc1C(=O)CCC(=O)O` has a melting point of 103 to 107 °C.
In the case of `O=C(Nc1cccc(C(F)(F)F)c1)c1cccnc1Cl`, the melting point was 117 to 118 °C.
In the case of `COc1ccc(COCc2nc(C(C)C)c(Sc3cc(Cl)cc(Cl)c3)n2CC(=O)c2ccccc2)cc1`, the melting point was 205 to 211 °C.
Molecule `CC(=O)CCN1C(=O)c2ccccc2S1(=O)=O` has a melting point of 118 to 119 °C.
In the case of `O=C1N=c2cc(O)c(O)cc2=NC1=O`, the melting point was > 350 °C.
`CCc1cc(OCCCN(C)Cc2ccc(OC)c(OC)c2)ccc1NC(=O)c1cccc2c(=O)c3cccc(F)c3[nH]c12` showed a melting point of 146 °C.
`CCCC(=O)c1cnc2c(C(O)CN3CCOCC3)cccc2c1Nc1ccccc1C` (stereo not drawn) gave a melting point of 135 to 137 °C.
In the case of `CCOC(=O)C(=O)Nc1ccccn1`, the melting point was 73 to 75 °C.
Molecule `Nc1nc2ccccc2c2c1ncn2CCOCCCc1cncnc1` has a melting point of 159 to 161 °C.
For `CC1CCCN1CCCN1C(=C(C#N)C#N)N(CCCN2CCCC2C)c2ccccc21` (stereo not drawn), the melting point was 83 to 85 °C.
For `Cc1cc(-n2ccc(OCC3CC3)cc2=O)sc1C(=O)NCc1ccccc1`, the melting point was 175 to 177 °C.
In the case of `CCOC(=O)c1c(O)nc2c(C(F)(F)F)cccc2c1O`, the melting point was 190 °C.
`Nc1cc(-c2ncnc(C(F)F)c2Cl)c(F)cc1Cl` showed a melting point of 106 to 108 °C.
Work on `O=C(NC1CCCCC1)NS(=O)(=O)c1ccc(CCn2cnc3ccccc3c2=O)cc1` yielded a melting point of 228 to 230 °C.
With `N#Cc1ccc(F)c(C(c2cc(N)ncc2Cl)S(=O)(=O)c2ccc(Cl)cc2)c1` (stereo not drawn) the melting point was > 220 °C.
With `Cc1c(N2C(=O)C=CC2=O)cccc1N1C(=O)C=CC1=O` the melting point was 210 to 212 °C.
`Cc1ccc(NC(=O)c2cccc(N3CCOCC3)c2)cc1[N+](=O)[O-]` showed a melting point of 149 to 150 °C.
With `CC1(C)OC(=O)C(Oc2ccc3ccccc3n2)=C1c1ccc(S(C)(=O)=O)cc1` the melting point was 141 to 142 °C.
With `Cc1ccc(C(=O)NC(Cc2cccc(Br)c2)C(=O)O)cc1` (stereo not drawn) the melting point was 196 to 197 °C.
`Cc1ccccc1NS(=O)(=O)c1ccc(N2CCNC2=O)cc1` showed a melting point of 209 to 210 °C.
With `CCc1nc2cnc3cc(OCC(=O)N4CCOCC4)ccc3c2n1CCOc1ccccc1` the melting point was 190 to 191 °C.
In the case of `N#Cc1ccc(F)cc1-c1ccc(OCc2ccccc2)cc1`, the melting point was 94 to 96 °C.
`CC(=O)CC(=O)NC1CCCCCCC1` gave a melting point of 44 °C.
In the case of `C[C@H](c1ccccc1CCn1cncn1)N(c1cc(F)ccc1F)S(=O)(=O)c1ccc(Cl)cc1`, the melting point was 116 to 118 °C.
For `COCCNc1nc(C)c(C)c(N2CCc3ccccc3C2C)n1` (stereo not drawn), the melting point was 64 to 67 °C.
`Cc1c(C)c2c(c(C)c1NCc1ccc(F)cc1)C(c1ccccc1)C(C)(C)O2` (stereo not drawn) showed a melting point of 93 to 95 °C.
Molecule `CCCN(c1c2c(nc3ccccc13)CCCC2)n1cc(C)c2ccccc21` has a melting point of 142 to 144 °C.
With `O=C(N1CCC(c2ccncc2)CC1)N1CCN(S(=O)(=O)c2ccc(Cl)cc2)CC1` the melting point was 234 to 235 °C.
In the case of `COc1cc2ncnc(N3CCN(C(=S)NCc4ccc(C(C)(C)C)cc4)CC3)c2cc1OC`, the melting point was 104 to 105 °C.
`CC(C)N(CCNC(=O)N1CCCC(S(=O)(=O)c2ccccc2)C1)C(C)C` (stereo not drawn) gave a melting point of 82.5 to 84 °C.
`CC1(C)CC(=O)C2C(=NC3=C(C(=O)CC(C)(C)C3)C2c2ccc(F)c(C#N)c2)C1` (stereo not drawn) showed a melting point of 274 to 275 °C.
`Cc1c(C)c(N2Cc3ccccc3C2)c(C)c2c1OC(C)(C)C2c1ccccc1` (stereo not drawn) showed a melting point of 164 to 166 °C.
`CCC(=O)OCc1c2ccccc2cc2ccccc12` gave a melting point of 79 to 80 °C.
Work on `CCCCCC(C)C(C)c1cc(O)c2c(c1)OC(C)(C)C1=C2CN(CC(=O)Nc2ccc(Cl)cc2)CC1` (stereo not drawn) yielded a melting point of 159 to 160 °C.
`C=C(C)OC1OC(n2cc(C)c(=O)n(CC(=O)c3ccccc3)c2=O)CC1OC(=O)c1ccccc1` (stereo not drawn) gave a melting point of 112 to 113 °C.
`CCOC(=O)C(=CN(CC)c1ccc(C=O)s1)C(=O)OCC` gave a melting point of 45 °C.
`O=C(O)c1ccc(OCCCCCCc2cccc(OCc3ccccc3)c2OCc2ccccc2)c(Cl)c1` showed a melting point of 87 to 89 °C.
In the case of `CCc1cc(C)c(Br)c(CC)c1-c1c(OC(=O)OC)c(C)nn(C)c1=O`, the melting point was 113 to 115 °C.
Molecule `CCOC(=O)c1cnc(O)nc1Cc1ccccc1` has a melting point of 57 to 61 °C.
In the case of `Nc1ncnc2c1nc(COCP(=O)(O)O)n2CCC1CCCCC1`, the melting point was > 250 °C.
In the case of `CC(C)C(C(=O)Nc1n[nH]c(=S)s1)N(C(=O)OCc1ccccc1)c1ccccc1F` (stereo not drawn), the melting point was 148 °C.
Work on `CC(C(=O)O)(c1ccccc1)N1CCC(c2noc3cc(F)ccc23)CC1` (stereo not drawn) yielded a melting point of 194 to 200 °C.
In the case of `CN(C)c1ccc(Cn2cnc3c(Cl)ncnc32)cc1`, the melting point was 125 to 127 °C.
Molecule `Cc1nc2ncnn2c2c1CCN2Cc1ccccc1` has a melting point of 170 to 172 °C.
`NCCCNC(=O)Cn1ncc(-c2ccccc2)c1-c1ccccc1` showed a melting point of 119 to 120 °C.
Molecule `Cc1ccn2c(-c3ccnc(-c4ccc(OCCN5CCCC5)cc4)c3)c(-c3cccc(C)n3)nc2c1` has a melting point of 163 °C.
Work on `Cc1c(C(=O)Nc2ccc(N3CCN(CCO)CC3)c(C#N)c2)cnn1-c1ccc(F)cc1` yielded a melting point of 179 to 180 °C.
With `Cc1cc(OCCCCOCc2ccccc2)cc(C)c1N=Nc1ccc([N+](=O)[O-])cc1` the melting point was 68 to 69.5 °C.
Molecule `CC(C)(C)OC(=O)N1CCc2c(n(CC(=O)Nc3ccccc3)c3cc(Cl)c(Cl)cc23)CC1` has a melting point of 172 °C.
For `Cc1ccccc1CC(=NC#N)NC(NC(=O)Cc1cccnc1)C(C)(C)C` (stereo not drawn), the melting point was 84 to 86 °C.
For `COC(=O)C(=CNc1cc(-c2cccc(Cl)c2)sc1C(=O)O)SC`, the melting point was 84 to 86 °C.
For `O=c1[nH]ncc2[nH]c(-c3ccc(OC(F)F)c(OC4CC4)c3)c(-c3ccccc3)c12`, the melting point was 138 to 143 °C.
For `COc1ccc(C(=O)Nc2cc(NC(=O)c3ccc(OCCCCl)cc3)ccc2C)cc1OC`, the melting point was 186 to 187 °C.
In the case of `O=C1CCCN1C(=O)Oc1cccc(Br)c1`, the melting point was 95 to 96 °C.
Molecule `Cc1cc2cc(CN3CCC(CCC(N)=O)CC3)cnc2cc1NC(=O)c1ccc(-c2ccc(F)cc2)cc1` has a melting point of 223 to 227 °C.
Molecule `COc1cc2c(cc1OCc1ccccc1)[C@H](CO)OC2=O` has a melting point of 126 to 128 °C.
For `CCCCCCCN(CCCCCS(=O)c1nc(-c2ccccc2)c(-c2ccccc2)[nH]1)C(=O)Nc1ccc(F)cc1F` (stereo not drawn), the melting point was 77 to 79 °C.
`CC(CC(C)(C)O)=NO` gave a melting point of 159 to 161 °C.
For `CCCCc1noc(-c2ccccc2)c1-c1ccc(S(N)(=O)=O)cc1`, the melting point was 150 °C.
`CC(C)(C)[Si](C)(C)OC1CC=C(c2ccc(NC(=O)OCc3ccccc3)c(F)c2)CC1` (stereo not drawn) showed a melting point of 116 to 119 °C.
`CNS(=O)(=O)CC(=O)C=C(C)N` showed a melting point of 158 to 162 °C.
For `NC1=NC(c2ccc(OC(F)(F)F)cc2)(c2cccc(-c3cccnc3F)c2)C2=NCCN12` (stereo not drawn), the melting point was 95 to 100 °C.
Work on `Cc1coc2c(c1=O)N(C)S(=O)(=O)c1ccccc1-2` yielded a melting point of 214 to 216 °C.
In the case of `CN(CCCCCNC(=NCCSCc1csc(NC(=N)N)n1)NC#N)CCN(Cc1ccc(F)cc1)c1ccccn1`, the melting point was 103 °C.
`CC(C)(C)c1cc(N(C(=O)Cc2ccccc2C(=O)O)c2ccccc2)cc(C(C)(C)C)c1O` gave a melting point of 170 to 175 °C.
Work on `O=C1CCC(Nc2nccc(-n3nnc4ccccc43)n2)CC1` yielded a melting point of 205 to 206 °C.
`CCCCn1c(C)nc(N2CCc3ccccc3CC2)c([N+](=O)[O-])c1=O` gave a melting point of 158 to 161 °C.
`COc1cc(O)cc(Cl)c1` gave a melting point of 94 to 96 °C.
`Cc1ccc(S(N)(=O)=O)cc1C(O)CN=[N+]=[N-]` (stereo not drawn) gave a melting point of 98 °C.
In the case of `Nc1ncnc2c1c(Cl)cn2COC(O)CCO` (stereo not drawn), the melting point was 175 to 176 °C.
`CSc1cc2c(cc1C(F)(F)F)N(C(=O)Nc1cccc(C(=O)NCCN(C)C)c1)CC2` showed a melting point of 91 to 93 °C.
In the case of `COc1ccc(-c2cc3ccccc3[nH]2)cc1N`, the melting point was 208 to 209 °C.
In the case of `CN1c2cscc2C(=O)N(CCN2CCCCC2)c2ccccc21`, the melting point was 84 to 88 °C.
`CC(=O)N(CCCCCC(=O)O)C(c1ccccc1)c1ccccc1` showed a melting point of 119 to 120 °C.
Molecule `CC1(c2ccccc2)Cc2cc(OCCO)c(Cl)c(Cl)c2C1=O` (stereo not drawn) has a melting point of 188 to 190 °C.
For `N#Cc1cnn(-c2c(Cl)cc(C(F)(F)F)cc2Cl)c1C=CC(=O)NS(=O)(=O)Cc1ccccc1`, the melting point was 178 to 183 °C.
`CN(C)C1=C(C#N)C(c2ccc(Cl)c([N+](=O)[O-])c2)c2ccc3ccccc3c2O1` (stereo not drawn) showed a melting point of 218 °C.
Molecule `Cc1c(Cl)ccc(C(=O)O)c1F` has a melting point of 198 °C.
In the case of `CCOC(=O)c1c(Cn2ccnn2)nc2cc(OC)c(OC)cc2c1-c1ccc(OC)c(OC)c1`, the melting point was 195 to 196 °C.
`COc1cccc(C2CNC(=O)C2c2cn3c4c(cccc24)CCC3)c1` (stereo not drawn) showed a melting point of 191 to 194 °C.
`CC1(C)C2CCC1(C)C(O)(c1ccccc1)C2` (stereo not drawn) gave a melting point of 41 to 42 °C.
With `O=C1[C@H](CC[C@H](O)c2ccc(F)cc2)[C@@H](c2ccc(OS(=O)(=O)C(F)(F)F)cc2)N1c1ccc(F)cc1` the melting point was 122 °C.
Work on `CNc1nc(CC(=O)Nc2cccc(C(F)(F)F)c2)cs1` yielded a melting point of 153 to 155 °C.
In the case of `Cn1cc(C2c3ccc(Cl)cc3C=Cc3sc(N)nc32)c(=O)[nH]c1=O` (stereo not drawn), the melting point was > 240 °C.
Work on `O=C(O)COc1cc2cc(CO)sc2c(Cl)c1Cl` yielded a melting point of 188 °C.
`COC(=O)CC/C(C)=C/Cc1c(N)c2c(c(C)c1OC)COC2=O` showed a melting point of 91 to 93 °C.
For `CC(=O)OCC(=O)Nc1cc(C#N)cc(NC(=O)COC(C)=O)c1Cl`, the melting point was 193 to 195 °C.
`Cc1nccc2c3ccc(OCCC(C)C)cc3n(CCC(C)C)c12` showed a melting point of 106 °C.
Work on `Cc1ccc(-c2cc(CO)c3[nH]c(=O)ccc3c2)c(C)n1` yielded a melting point of 218 to 221 °C.
